According to US10357486B2, “Treatment of cognitive impairment with PDE4 inhibitor” (Universiteit Maastricht, priority 2013, dated 2019):
Entries after “also recorded” stand apart in the source; their conditions may differ. Marks after values point to notes of the source that are not given here.

Assays:
[1] = test system: scopolamine induced memory deficit in male Wistar rats; test: Object recognition task (ORT), scopolamine induced memory deficit; assay type: in vivo; settings: for d2 (discrimination index): 1 h retention, mean (SEM)
From the text: The objective of this study is to evaluate the efficacious dose range of roflumilast with regard to cognitive improvement effects by using scopolamine induced memory deficit on object memory performance in male Wistar rats. Memory acquisition processes are investigated using the object recognition test (ORT).
Maintenance of Animals: Sixteen 3-4 month old male Wistar rats (Charles River, Sulzfeld, Germany) were used for the study. All animals were housed individually in standard green line Tecniplast IVC cages on stardust bedding. The animals were housed on a reversed 12/12 h light/dark cycle (lights on from 07:00 pm to 07:00 am) and had free access to food and water. The rats were housed and tested in the same room. A radio, playing softly, provided background noise in the room. All testing was performed between 09:00 am and 06:00 pm.
Preparation of Compounds: Drugs were prepared daily, except as indicated otherwise. Roflumilast (Takeda, Konstanz, Germany, MW 403.21) was dissolved in 98% methylcellulose solution (0.5% methylcellulose) and 2% Tween 80. Roflumilast in doses of 0 (vehicle), 0.0001, 0.0003, 0.001, 0.003, 0.01 and 0.03 mg/kg was administered intraperitoneally (ip, injection volume 1 ml/kg). Scopolamine (in form of scopolamine hydrobromide) was dissolved in saline (0.9% NaCl). Scopolamine hydrobromide was administered intraperitoneally at a dose of 0.1 mg/kg (ip, injection volume 1 ml/kg). Scopolamine and roflumilast were administered 30 min before T1.
Object Recognition Task in Rats: The ORT was performed as described elsewhere (Ennaceur and Delaceur, 1988, Behav Brain Res, Vol 31, pp 47-59; Akkerman et al; 2012, Behav Brain Res, Vol 232, pp 335-347). The apparatus consisted of a circular arena, 83 cm in diameter. The back half of the 40 cm high wall was made of grey PVC and the front was made of transparent PVC. Fluorescent red tubes and a light bulb provided a constant illumination of about 20 lux on the floor of the apparatus. The light intensity was equal in the different parts of the apparatus.
Two objects were placed in symmetrical positions at the mid-line between the gray and transparent halves of the arena, about ten centimeters away from wall. Four different sets of objects were available: 1) a standard 1 L brown transparent glass bottle (diameter 10 cm, height 22 cm) filled with water, 2) a metal cube (10.0×5.0×7.5 cm) with two holes (diameter 1.9 cm), 3) a cone consisting of a gray PVC base (maximal diameter 18 cm) with a collar on top made of brass (total height 16 cm), and 4) an aluminium cube with a tapering top (13.0×8.0×8.0 cm). Objects were presented to the animals in a balanced manner to avoid object or place biases. Rats were unable to displace the objects.
A test session comprised two trials, each with durations of 3 min. During the learning trial (T1) the apparatus contains two identical objects (object al and a2). Rats were always introduced into the apparatus with their nose towards the transparent wall segment (i.e. facing outwards to the front of the arena). Subsequently, rats were put back in its home cage for a 1 h interval. After the retention interval, rats were put back into the arena for the […] (T2). In T2, the two objects from T1 were replaced by one identical copy (a3) and a different novel object (b). The times spent in exploring each object during T1 and T2 were recorded manually on a personal computer.
Exploration was defined in the following manner: directing the nose to the object at a distance of no more than 2 cm and/or touching the object with the nose. Sitting on the object was not considered as exploratory behavior. In order to avoid the presence of olfactory cues, the objects were thoroughly cleaned with a 70% ethanol solution before each trial.
Prior to compound testing, the animals were handled for 5 min on 2 consecutive days and allowed to explore the ORT arena, also for 5 min. […]

[2] = test system: 60 to 80 years old subjects (Impaired Elderly and Healthy Elderly); test: Bond-Lader Visual Analogue Scales (BL-VAS) in 60 to 80 years old subjects, interim analysis; assay type: in vivo, human; settings: low dose (100 mcg); at 45 min
Description: The study is conducted according to a double-blind, placebo-controlled, four-period cross-over design. Forty healthy subjects, both male and female within an age range of 60 to 80 years are planned to be included in the study in 2 groups: 1) 20 subjects with a memory performance between 1-2 Standard Deviation below the average for their age, gender, and educated level (Impaired Elderly) and 2) 20 subjects with age (±3 years), gender, and educational level matched (in order to speed up the study matching was stopped after the interim analysis) with an average memory performance between 0.5 Standard Deviation below and 0.5 Standard Deviation above from normative values (Healthy Elderly). Classification in terms of impaired or healthy elderly will be determined by a one-off testing of memory performance using the Rey Verbal Learning Task (Rey A; L'examen psychologique dans les cas d'encephalopathy traumatique 1958 Paris; Presses Universitaire de France; or Van der Elst et al; J Int Neuropsychol Soc 2005, 11 (3), pp 290-302) according to fully standardized procedures as applied in The Maastricht Aging Study (Jolles et al; Maastricht Aging Study; determinants of cognitive aging; Maastricht, The Netherlands, Neuropsych Publishers 1995). […]

[3] = Plasma concentration levels of roflumilast and roflumilast-N-oxide in humans; assay type: in vivo, human
From the text: An interim analysis has been performed based on the data of 9 subjects of the Impaired Elderly group and 4 subjects of the Healthy Elderly group. For this purpose, cognitive battery test scores (VLT, SMT, Stroop task and BL-VAS) and concentrations of roflumilast and roflumilast-N-oxide in plasma have been analysed and summarized by dose over each scheduled sampling time using descriptive statistics.

## O=C(Nc1c(Cl)cncc1Cl)c1ccc(OC(F)F)c(OCC2CC2)c1 [roflumilast, N-(3,5-dichloropyridin-4-yl)-3-cyclopropylmethoxy-4-difluoromethoxybenzamide]
[1]; 0.0001 mg/kg ip + scopolamine
  d2 value compared to the vehicle condition (post-hoc Bonferroni t-test): significantly lower
[1]; 0.003 mg/kg ip + scopolamine
  d2 value compared to the scopolamine condition (post-hoc Bonferroni t-test): significantly higher
[1]; 0.01 mg/kg ip + scopolamine
  d2 value compared to the scopolamine condition (post-hoc Bonferroni t-test): significantly higher
[1]; 0.03 mg/kg ip + scopolamine
  d2 value compared to the scopolamine condition (post-hoc Bonferroni t-test): significantly higher
[1]; roflumilast 0.0001 mg/kg ip + scopolamine 0.1 mg/kg ip
  d2 (discrimination index): 0.05 (0.05)
[1]; roflumilast 0.0003 mg/kg ip + scopolamine 0.1 mg/kg ip
  d2 (discrimination index): 0.16 (0.06) #
[1]; roflumilast 0.001 mg/kg ip + scopolamine 0.1 mg/kg ip
  d2 (discrimination index): 0.27 (0.06) ###
[1]; roflumilast 0.003 mg/kg ip + scopolamine 0.1 mg/kg ip
  d2 (discrimination index): 0.43 (0.06) ###
[1]; roflumilast 0.01 mg/kg ip + scopolamine 0.1 mg/kg ip
  d2 (discrimination index): 0.34 (0.06) ###
[1]; roflumilast 0.03 mg/kg ip + scopolamine 0.1 mg/kg ip
  d2 (discrimination index): 0.30 (0.07) ###
[1]; single ip dose 0.0001 mg/kg, 0.0001 mg/kg
  effect on memory function in rats treated with scopolamine (ORT): No effect
[1]; single ip dose 0.0003 mg/kg, 0.0003 mg/kg
  effect on memory function in rats treated with scopolamine (ORT): intermediate memory improvement; also recorded: increasingly less efficacy
[1]; single ip dose 0.001 mg/kg, 0.001 mg/kg
  effect on memory function in rats treated with scopolamine (ORT): intermediate memory improvement; also recorded: increasingly less efficacy
[1]; single ip dose 0.003 mg/kg, 0.003 mg/kg
  effect on memory function in rats treated with scopolamine (ORT): fully restore memory function
[1]; single ip dose 0.01 mg/kg
  effect on memory function in rats treated with scopolamine (ORT): increasingly less efficacy
[1]; single ip dose 0.03 mg/kg
  effect on memory function in rats treated with scopolamine (ORT): increasingly less efficacy
[2]
  (subjective) alertness in comparison with placebo, based on BL-VAS scores: significantly higher
[3]; elderly study, interim analysis, 100, 250, 1000 mcg
  exposure (concentrations in plasma): consistent with those previously reported
[3]; humans, once a day (24 h) regimen
  steady state plasma concentration levels in once a day repeated dosing compared to once a day single dosing: about two-fold
